Experimental data taken from patent US8541447B2 (priority 2003, dated 2013).
Read-outs that look alike come from different tables or passages of the source.

Molecular target: muscarinic M3 receptor (Homo sapiens (Human), UniProt P20309)
Type: binding

Row | Compound | ability to inhibit [3H]QNB binding at muscarinic sites | ability to inhibit [3H]QNB binding at muscarinic sites (human clonal line TE671/RD)
1 | O=C(Nc1ccc(Br)cc1)OC1C2CCN(CC2)C1Cc1cccnc1 (centres unmarked) [Compound 1, 2-((3-pyridinyl)methyl)-1-azabicyclo[2.2.2]oct-3-yl N-(4-bromophenyl)carbamate] | None of the compounds was able to inhibit [^3H]QNB binding | 
2 | O=C(Nc1ccccc1)OC1C2CCN(CC2)C1Cc1cccnc1 (centres unmarked) [Compound 2, 2-((3-pyridinyl)methyl)-1-azabicyclo[2.2.2]oct-3-yl N-phenylcarbamate] | None of the compounds was able to inhibit [^3H]QNB binding | 
3 | COc1ccc(NC(=O)OC2C3CCN(CC3)C2Cc2cccnc2)cc1 (centres unmarked) [Compound 4, 2-((3-pyridinyl)methyl)-1-azabicyclo[2.2.2]oct-3-yl N-(4-methoxyphenyl)carbamate] | None of the compounds was able to inhibit [^3H]QNB binding | 
4 | O=C(NC1C2CCN(CC2)C1Cc1cccnc1)c1cc2ccccc2o1 (centres unmarked) [Compound 9, N-(2-((3-pyridinyl)methyl)-1-azabicyclo[2.2.2]oct-3-yl)benzofuran-2-carboxamide] |  | None of the compounds was able to inhibit [^3H]QNB binding
5 | O=C(NC1C2CCN(CC2)C1Cc1cccnc1)c1ccc(Sc2ccccc2)cc1 (centres unmarked) [Compound 11] |  | None of the compounds was able to inhibit [^3H]QNB binding
